From patent publication US5466450A, “Antiviral antibiotic BU-4224V” (priority 1993, dated 1995) come the findings set out here.

What all share (type): cell-based
Data set [1] concerns herpes simplex virus type 1 (KOS strain). Briefly: Plaque reduction assay, HSV-1 infection in Vero cells. Particulars: Human alphaherpesvirus 1, HSV-1, Vero cells, read-out: ID50 (the source's name). Here is the method:
(§1) Antiviral activity for each component of BU-4224V was evaluated by the dye uptake and the plaque reduction assay using herpes simplex virus type 1 (KOS strain) infection in Vero cells. In the dye uptake assay, 200 μl of the Vero cell suspension containing 1.6×10^4 cells was poured into each well of 96-well microplates, and then 50 μl of medium containing a test compound at various concentrations was added to each well. The viral suspension (50 μl ) containing approximately 30X TCID50 was inoculated to each well. For cytotoxicity tests, the same set of wells without viruses were prepared. After incubation at 37° C. for 72 hours under the humidified 5% CO2 -95% air environment, the degree of inhibition of the virus-induced cytopathic effect and the drug-induced cytotoxicity were determined by means of the uptake of neutral red. […] Acyclovir was used as a reference compound of anti-HSV activity. The antiviral activity of BU-4224V was also evaluated by the conventional plaque reduction assay method using a 24-well microplate.
For orientation: Plaques are areas of infected cells; plaque reduction assays count them against a control.

The test system is the same in data set [2]. The data set is described as follows: Dye uptake assay, HSV-1 infection in Vero cells. The settings on record: Human alphaherpesvirus 1, HSV-1, Vero cells, 72 hours, read-out: ID50 (the source's name). Here is the method:
as §1

A further data set in a line: in vitro. Particulars: monkey, vero cells. How it is done:
as §1

Data set [3] is described as follows: Minimal toxic dose in the plaque reduction assay. Particulars: monkey, HSV-Vero cells, read-out: MTD (minimal toxic dose). How it is done: as §1

The structures appear in SMILES notation. Values after ≈ are worked out from the molar mass of the structure shown.

Turning to `Nc1nc2c(ncn2COCCO)c(=O)[nH]1` [Acyclovir], the figures for the IC50 in data set [1] and in data set [2] were 0.27 µg/mL (≈ 1.2 µM) and 0.09 µg/mL (≈ 0.4 µM), respectively. This molecule came in with a CC50 at 72 h in “in vitro” above 100 µg/mL. For the same molecule, the MCC in data set [3] is above 100 µg/mL.

By CC50 is commonly meant the concentration at which the toxic effect on the cells reaches its halfway point. A higher CC50 goes with lower toxicity to the cells.
